Literature values in patent US5888536A (Chinoin Ltd., priority 1994, dated 1999).

C#CCN(C)[C@H](C)Cc1ccccc1 [selegilin, (-)-[N-α-dimethyl-N-(2-propynylphenylethylamine)]]
solubility in chloroform (chloroform): 1 g/5 ml | solubility in methanol (methanol): 1 g/3 ml | solubility in water (water): 1 g/3 ml
